pKi: −log10 of the molar value.
Legend:
[1] = target: T1, Muscarinic acetylcholine receptor M1 (Homo sapiens) (UniProt P11229); test: Inhibition of M1 muscarinic receptor at 10 uM by NIMH PDSP
T1 sequence (whole entry): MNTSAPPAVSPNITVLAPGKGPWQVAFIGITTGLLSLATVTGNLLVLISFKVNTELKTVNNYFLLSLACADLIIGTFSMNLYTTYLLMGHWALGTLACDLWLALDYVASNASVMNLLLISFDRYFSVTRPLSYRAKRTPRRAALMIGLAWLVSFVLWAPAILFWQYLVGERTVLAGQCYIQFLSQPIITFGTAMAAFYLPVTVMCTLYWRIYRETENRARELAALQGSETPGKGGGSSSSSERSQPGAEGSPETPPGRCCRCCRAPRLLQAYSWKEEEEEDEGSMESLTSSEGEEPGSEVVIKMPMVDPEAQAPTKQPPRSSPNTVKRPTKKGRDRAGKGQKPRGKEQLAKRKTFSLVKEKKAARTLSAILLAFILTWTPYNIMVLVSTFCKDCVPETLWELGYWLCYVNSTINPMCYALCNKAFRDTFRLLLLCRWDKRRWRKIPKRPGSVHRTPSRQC

[2] = target: D(3) dopamine receptor (Homo sapiens) (UniProt P35462); test: Inhibition of D3 dopamine receptor at 10 uM by NIMH PDSP
[3] = target: T2, 5-hydroxytryptamine receptor 2C (Homo sapiens) (UniProt P28335); test: Inhibition of 5-HT2C receptor at 10 uM by NIMH PDSP
T2 sequence (whole entry): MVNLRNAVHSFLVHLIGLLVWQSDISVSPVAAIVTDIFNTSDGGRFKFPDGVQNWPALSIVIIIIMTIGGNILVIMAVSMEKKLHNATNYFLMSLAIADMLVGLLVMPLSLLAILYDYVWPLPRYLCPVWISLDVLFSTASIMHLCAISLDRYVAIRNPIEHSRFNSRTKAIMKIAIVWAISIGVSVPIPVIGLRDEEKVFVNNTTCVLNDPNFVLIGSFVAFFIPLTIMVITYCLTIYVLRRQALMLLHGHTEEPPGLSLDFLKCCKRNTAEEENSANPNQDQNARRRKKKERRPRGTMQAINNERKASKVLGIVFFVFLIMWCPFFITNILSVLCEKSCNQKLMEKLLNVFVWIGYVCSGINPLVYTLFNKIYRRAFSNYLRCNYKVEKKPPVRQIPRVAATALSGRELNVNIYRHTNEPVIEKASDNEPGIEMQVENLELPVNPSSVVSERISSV

Rattus norvegicus = species: Rattus norvegicus; test: Inhibition of BZP receptor in rat brain at 10 uM by NIMH PDSP; format: tissue-based
[4] = target: Sodium-dependent serotonin transporter (Homo sapiens) (UniProt P31645); test: Inhibition of SERT at 10 uM by NIMH PDSP
[5] = target: Sigma non-opioid intracellular receptor 1 (Cavia porcellus, UniProt Q60492); test: Displacement of [3H](+)-pentazocine from sigma 1 receptor in guinea pig brain homogenates after 90 mins by scintillation counting; format: tissue-based
[6] = target: Beta-3 adrenergic receptor (Homo sapiens) (UniProt P13945); test: Inhibition of beta-3 adrenergic receptor at 10 uM by NIMH PDSP
[7] = target: 5-hydroxytryptamine receptor 2A (Homo sapiens) (UniProt P28223); test: Inhibition of 5-HT2A receptor at 10 uM by NIMH PDSP
[8] = target: 5-hydroxytryptamine receptor 1B (Homo sapiens) (UniProt P28222); test: Inhibition of 5-HT1B receptor at 10 uM by NIMH PDSP
[9] = target: Muscarinic acetylcholine receptor M3 (Homo sapiens) (UniProt P20309); test: Inhibition of M3 muscarinic receptor at 10 uM by NIMH PDSP
[10] = target: T3, Alpha-1D adrenergic receptor (Homo sapiens) (UniProt P25100); test: Inhibition of alpha-1D adrenergic receptor at 10 uM by NIMH PDSP
T3 sequence (whole entry): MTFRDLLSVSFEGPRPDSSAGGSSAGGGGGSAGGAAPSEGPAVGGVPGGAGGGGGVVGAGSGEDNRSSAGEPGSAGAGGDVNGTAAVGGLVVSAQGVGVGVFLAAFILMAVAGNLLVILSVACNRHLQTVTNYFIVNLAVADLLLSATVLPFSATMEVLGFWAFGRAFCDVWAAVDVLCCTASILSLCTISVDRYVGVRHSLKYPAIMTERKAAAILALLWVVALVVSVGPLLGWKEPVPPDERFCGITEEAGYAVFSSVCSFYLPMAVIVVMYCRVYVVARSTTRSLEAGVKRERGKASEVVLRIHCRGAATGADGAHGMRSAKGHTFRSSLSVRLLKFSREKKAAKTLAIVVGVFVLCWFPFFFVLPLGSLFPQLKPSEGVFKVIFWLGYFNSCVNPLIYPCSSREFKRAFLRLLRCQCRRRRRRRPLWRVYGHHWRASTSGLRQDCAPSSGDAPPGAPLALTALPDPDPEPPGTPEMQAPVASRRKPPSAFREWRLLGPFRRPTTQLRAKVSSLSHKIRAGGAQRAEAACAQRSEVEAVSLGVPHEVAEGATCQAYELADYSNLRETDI

[11] = Displacement of [3H]DTG from sigma 2 receptor in rat liver homogenates in presence of sigma-1 receptor blocker (+)-pentazocine after 120 mins by liquid scintillation counting; format: tissue-based
[12] = target: Beta-1 adrenergic receptor (Homo sapiens) (UniProt P08588); test: Inhibition of beta-1 adrenergic receptor at 10 uM by NIMH PDSP
[13] = target: Histamine H4 receptor (Homo sapiens) (UniProt Q9H3N8); test: Inhibition of H4 receptor at 10 uM by NIMH PDSP
[14] = target: T4, Alpha-2A adrenergic receptor (Homo sapiens) (UniProt P08913); test: Inhibition of alpha-2A adrenergic receptor at 10 uM by NIMH PDSP
T4 sequence (whole entry): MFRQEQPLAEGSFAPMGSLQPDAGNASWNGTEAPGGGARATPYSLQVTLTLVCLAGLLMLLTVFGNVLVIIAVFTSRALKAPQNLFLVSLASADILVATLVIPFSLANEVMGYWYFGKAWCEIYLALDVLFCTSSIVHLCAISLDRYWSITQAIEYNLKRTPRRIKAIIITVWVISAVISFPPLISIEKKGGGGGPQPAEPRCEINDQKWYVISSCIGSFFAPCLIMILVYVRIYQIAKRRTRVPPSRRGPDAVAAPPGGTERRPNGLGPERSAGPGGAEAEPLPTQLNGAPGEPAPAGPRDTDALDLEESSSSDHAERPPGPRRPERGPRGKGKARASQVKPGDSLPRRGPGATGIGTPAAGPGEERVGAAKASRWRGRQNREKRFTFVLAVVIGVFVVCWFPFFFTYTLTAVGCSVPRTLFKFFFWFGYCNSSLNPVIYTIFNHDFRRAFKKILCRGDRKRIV

Chain of Sodium-dependent serotonin transporter (Homo sapiens) (P31645 whole entry, looked up): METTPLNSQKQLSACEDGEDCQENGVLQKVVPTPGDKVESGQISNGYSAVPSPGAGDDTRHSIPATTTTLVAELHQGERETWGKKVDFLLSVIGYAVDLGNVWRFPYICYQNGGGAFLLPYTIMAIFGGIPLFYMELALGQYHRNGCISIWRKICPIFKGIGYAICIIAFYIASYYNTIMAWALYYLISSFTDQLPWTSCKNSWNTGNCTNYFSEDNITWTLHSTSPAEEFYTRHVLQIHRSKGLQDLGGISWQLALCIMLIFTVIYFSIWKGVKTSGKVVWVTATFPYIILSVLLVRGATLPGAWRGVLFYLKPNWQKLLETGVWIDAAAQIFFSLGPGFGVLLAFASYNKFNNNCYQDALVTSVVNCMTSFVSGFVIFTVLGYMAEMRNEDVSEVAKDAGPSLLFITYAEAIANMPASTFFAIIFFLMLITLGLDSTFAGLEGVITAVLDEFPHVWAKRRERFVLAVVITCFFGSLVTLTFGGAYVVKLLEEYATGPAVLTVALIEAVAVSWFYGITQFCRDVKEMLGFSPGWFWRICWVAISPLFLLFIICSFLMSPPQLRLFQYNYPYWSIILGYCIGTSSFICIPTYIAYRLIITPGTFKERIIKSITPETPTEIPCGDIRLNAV
Chain of Sigma non-opioid intracellular receptor 1 (Q60492 whole entry): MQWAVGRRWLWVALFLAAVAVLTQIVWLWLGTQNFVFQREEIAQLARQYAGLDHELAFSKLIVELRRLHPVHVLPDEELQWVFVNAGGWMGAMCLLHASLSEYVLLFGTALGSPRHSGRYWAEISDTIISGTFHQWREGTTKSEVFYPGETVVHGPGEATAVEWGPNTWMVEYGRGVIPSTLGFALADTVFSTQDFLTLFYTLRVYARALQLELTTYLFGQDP
Chain of Histamine H4 receptor (Homo sapiens) (Q9H3N8 whole entry): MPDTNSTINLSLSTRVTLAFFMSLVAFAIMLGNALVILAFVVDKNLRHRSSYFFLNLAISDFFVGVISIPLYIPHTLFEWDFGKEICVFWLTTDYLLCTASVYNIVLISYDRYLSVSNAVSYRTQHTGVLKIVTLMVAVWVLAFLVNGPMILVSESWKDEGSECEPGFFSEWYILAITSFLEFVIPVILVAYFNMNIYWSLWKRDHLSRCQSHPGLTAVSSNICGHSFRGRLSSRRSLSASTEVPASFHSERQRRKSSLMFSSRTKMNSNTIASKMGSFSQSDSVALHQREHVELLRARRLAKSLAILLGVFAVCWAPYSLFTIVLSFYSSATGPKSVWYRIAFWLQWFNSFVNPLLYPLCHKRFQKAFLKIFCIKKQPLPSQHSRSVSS
Chain of Muscarinic acetylcholine receptor M3 (Homo sapiens) (P20309 whole entry, looked up): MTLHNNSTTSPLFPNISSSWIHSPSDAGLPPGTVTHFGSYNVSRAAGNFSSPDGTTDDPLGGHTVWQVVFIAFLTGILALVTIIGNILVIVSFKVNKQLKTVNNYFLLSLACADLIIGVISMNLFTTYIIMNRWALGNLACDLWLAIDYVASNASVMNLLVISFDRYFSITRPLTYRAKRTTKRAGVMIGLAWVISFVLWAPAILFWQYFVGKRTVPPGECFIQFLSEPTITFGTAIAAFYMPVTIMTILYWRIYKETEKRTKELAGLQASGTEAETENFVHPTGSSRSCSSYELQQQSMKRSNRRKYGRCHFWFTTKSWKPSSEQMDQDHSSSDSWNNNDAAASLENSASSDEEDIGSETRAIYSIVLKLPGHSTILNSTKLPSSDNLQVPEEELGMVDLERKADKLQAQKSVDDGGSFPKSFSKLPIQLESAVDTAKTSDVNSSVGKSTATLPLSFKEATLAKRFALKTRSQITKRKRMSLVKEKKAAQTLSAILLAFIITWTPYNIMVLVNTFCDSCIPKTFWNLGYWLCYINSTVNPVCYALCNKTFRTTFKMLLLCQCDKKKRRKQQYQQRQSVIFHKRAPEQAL
Chain of 5-hydroxytryptamine receptor 2A (Homo sapiens) (P28223 whole entry): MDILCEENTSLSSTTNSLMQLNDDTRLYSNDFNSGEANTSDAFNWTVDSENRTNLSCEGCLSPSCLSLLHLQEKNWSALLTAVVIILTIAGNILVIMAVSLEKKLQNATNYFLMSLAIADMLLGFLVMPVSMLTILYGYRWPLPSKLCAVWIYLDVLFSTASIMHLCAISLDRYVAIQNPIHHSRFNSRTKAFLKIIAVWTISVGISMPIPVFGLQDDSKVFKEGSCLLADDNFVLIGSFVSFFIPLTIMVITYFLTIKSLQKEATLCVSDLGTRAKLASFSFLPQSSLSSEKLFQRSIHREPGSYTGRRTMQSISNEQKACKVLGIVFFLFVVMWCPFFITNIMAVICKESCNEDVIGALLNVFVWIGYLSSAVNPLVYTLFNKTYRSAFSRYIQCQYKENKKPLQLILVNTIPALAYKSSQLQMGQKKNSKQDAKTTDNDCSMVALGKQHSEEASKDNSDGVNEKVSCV
Chain of D(3) dopamine receptor (Homo sapiens) (P35462 whole entry): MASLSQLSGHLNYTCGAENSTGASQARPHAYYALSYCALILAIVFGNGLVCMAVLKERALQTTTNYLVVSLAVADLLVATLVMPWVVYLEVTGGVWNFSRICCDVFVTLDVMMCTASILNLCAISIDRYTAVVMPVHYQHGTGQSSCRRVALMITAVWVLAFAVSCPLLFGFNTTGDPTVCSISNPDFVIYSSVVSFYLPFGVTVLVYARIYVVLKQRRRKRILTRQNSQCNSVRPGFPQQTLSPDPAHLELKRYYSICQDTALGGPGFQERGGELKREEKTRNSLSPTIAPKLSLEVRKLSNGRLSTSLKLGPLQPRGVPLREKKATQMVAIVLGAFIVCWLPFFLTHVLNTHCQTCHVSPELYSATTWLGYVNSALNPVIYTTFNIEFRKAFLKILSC
Chain of Beta-3 adrenergic receptor (Homo sapiens) (P13945 whole entry, looked up): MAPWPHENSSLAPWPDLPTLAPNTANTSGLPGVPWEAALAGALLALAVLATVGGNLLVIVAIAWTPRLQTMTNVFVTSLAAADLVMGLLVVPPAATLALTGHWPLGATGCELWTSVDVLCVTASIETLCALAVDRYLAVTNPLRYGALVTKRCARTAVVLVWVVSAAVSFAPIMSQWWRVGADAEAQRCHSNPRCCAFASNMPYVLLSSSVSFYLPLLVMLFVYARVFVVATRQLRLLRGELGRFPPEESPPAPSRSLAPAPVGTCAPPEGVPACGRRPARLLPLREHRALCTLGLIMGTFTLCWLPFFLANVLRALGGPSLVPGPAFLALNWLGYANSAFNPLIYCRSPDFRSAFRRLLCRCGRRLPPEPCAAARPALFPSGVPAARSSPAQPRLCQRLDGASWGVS
Chain of 5-hydroxytryptamine receptor 1B (Homo sapiens) (P28222 whole entry): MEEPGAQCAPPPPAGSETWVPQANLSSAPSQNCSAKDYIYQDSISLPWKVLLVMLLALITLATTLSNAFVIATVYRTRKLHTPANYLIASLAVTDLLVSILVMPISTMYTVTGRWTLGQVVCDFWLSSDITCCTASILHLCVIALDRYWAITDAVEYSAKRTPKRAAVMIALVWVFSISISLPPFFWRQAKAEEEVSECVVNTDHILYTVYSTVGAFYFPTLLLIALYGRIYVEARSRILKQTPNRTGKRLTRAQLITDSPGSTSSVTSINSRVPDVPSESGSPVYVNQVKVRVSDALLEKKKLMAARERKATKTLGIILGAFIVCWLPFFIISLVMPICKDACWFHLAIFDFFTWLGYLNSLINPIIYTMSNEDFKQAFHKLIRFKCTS
Chain of Beta-1 adrenergic receptor (Homo sapiens) (P08588 whole entry, looked up): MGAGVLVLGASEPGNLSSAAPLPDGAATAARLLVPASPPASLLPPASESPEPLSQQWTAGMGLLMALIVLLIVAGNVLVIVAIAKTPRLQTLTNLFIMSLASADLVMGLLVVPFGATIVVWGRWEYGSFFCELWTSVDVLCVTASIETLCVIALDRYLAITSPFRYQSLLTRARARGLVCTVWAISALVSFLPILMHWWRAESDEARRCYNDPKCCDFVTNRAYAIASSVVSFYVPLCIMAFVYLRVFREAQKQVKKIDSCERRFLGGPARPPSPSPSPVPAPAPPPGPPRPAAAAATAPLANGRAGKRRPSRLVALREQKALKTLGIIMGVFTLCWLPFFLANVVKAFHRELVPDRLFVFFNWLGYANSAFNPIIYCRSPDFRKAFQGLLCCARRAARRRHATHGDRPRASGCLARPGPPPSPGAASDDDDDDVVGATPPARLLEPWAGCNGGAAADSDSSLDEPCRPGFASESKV

Row | SMILES | inhibition [1] [%] | inhibition [2] [%] | inhibition [3] [%] | inhibition (Rattus norvegicus) [%] | inhibition [4] [%] | pKi [5] | inhibition [6] [%] | inhibition [7] [%] | inhibition [8] [%] | inhibition [9] [%] | inhibition [10] [%] | pKi [11] | inhibition [12] [%] | inhibition [13] [%] | inhibition [14] [%]
1 | OC12CC3CC(CC(C3)N1Cc1ccccc1)C2 (racemic) | < 50 | < 50 | < 50 | < 50 | < 50 | 5.84 | < 50 | < 50 | < 50 | < 50 | < 50 | 5.99 | < 50 | < 50 | –
2 | OC12CC3CC(CC(C3)N1Cc1cccc(F)c1)C2 (racemic) | < 50 | < 50 | < 50 | < 50 | < 50 | 6.06 | < 50 | < 50 | < 50 | < 50 | < 50 | 6.15 | < 50 | < 50 | < 50
3 | Fc1cccc(CN2C3CC4CC(C3)CC2C4)c1 | < 50 | < 50 | < 50 | < 50 | < 50 | 7.66 | < 50 | < 50 | < 50 | < 50 | < 50 | 6.88 | < 50 | < 50 | < 50
4 | c1ccc(CN2C3CC4CC(C3)CC2C4)cc1 | < 50 | < 50 | < 50 | < 50 | < 50 | 7.54 | < 50 | < 50 | < 50 | < 50 | < 50 | 7.02 | < 50 | < 50 | < 50

Reference: ChEMBL document CHEMBL1821607, “N-Arylalkyl-2-azaadamantanes as cage-expanded polycarbocyclic sigma (σ) receptor ligands” (Bioorg Med Chem Lett, 2011)
